Source: patent US20070093520A1, “Method of treatment of diarrhea-predominant irritable bowel syndrome in a subject” (priority 2005, published 2007)

Test system: diarrhea-predominant IBS subjects
Test: 3007 Study: open-label 52-week safety study, adverse events and withdrawals
Details: Overall

SMILES: Cc1nccn1C[C@H]1CCc2c(c3cccc4c3n2CCC4)C1=O [cilansetron, (R)-(−)-4,5,6,8,9,10-hexahydro-10-[(2-methyl-1H-imidazol-1-yl)methyl]-11H-pyrido-[3,2,1-jk]-carbazol-11-one]
- TEAE: Memory Loss (Excl Dementia): 1 (<1%) n (%)
- TEAE: Meniere's Disease: 1 (<1%) n (%)
- TEAE: Menorrhagia*: 2 (<1%) n (%)
- TEAE: Menstruation Irregular*: 1 (<1%) n (%)
- TEAE: Menstruation and Uterine Bleeding NEC*: 2 (<1%) n (%)
- TEAE: Menstruation with Decreased Bleeding*: 1 (<1%) n (%)
- TEAE: Menstruation with Increased Bleeding*: 3 (<1%) n (%)
- TEAE: Mental Disorders NEC: 1 (<1%) n (%)
- TEAE: Mental Status Changes: 1 (<1%) n (%)
- TEAE: Metabolic Bone Disorders: 3 (<1%) n (%)
- TEAE: Metabolism Tests NEC: 6 (1%) n (%)
- TEAE: Metabolism and Nutrition Disorders: 21 (4%) n (%)
- TEAE: Middle Ear Disorders NEC: 1 (<1%) n (%)
- TEAE: Migraine Headaches: 5 (<1%) n (%)
- TEAE: Migraine NOS: 5 (<1%) n (%)
- TEAE: Mineral and Electrolyte Analyses: 2 (<1%) n (%)
- TEAE: Monoarthritis: 2 (<1%) n (%)
- TEAE: Monocyte Count Decreased: 2 (<1%) n (%)
- TEAE: Monocyte Count Increased: 2 (<1%) n (%)
- TEAE: Mononeuropathies: 3 (<1%) n (%)
- TEAE: Motion Sickness: 1 (<1%) n (%)
- TEAE: Movement Disorder NOS: 1 (<1%) n (%)
- TEAE: Muscle Cramps: 10 (2%) n (%)
- TEAE: Muscle Infections and Inflammations: 1 (<1%) n (%)
- TEAE: Muscle Pains: 3 (<1%) n (%)
- TEAE: Muscle Related Signs and Symptoms NEC: 11 (2%) n (%)
- TEAE: Muscle Spasms: 1 (<1%) n (%)
- TEAE: Muscle Strain: 8 (1%) n (%)
- TEAE: Muscle Tone Abnormalities: 1 (<1%) n (%)
- TEAE: Muscle, Tendon and Ligament Injuries: 10 (2%) n (%)
- TEAE: Musculoskeletal Chest Pain: 1 (<1%) n (%)
- TEAE: Musculoskeletal and Connective Tissue Disorders: 87 (16%) n (%)
- TEAE: Musculoskeletal and Connective Tissue Signs and Symptoms NEC: 33 (6%) n (%)
- TEAE: Musculoskeletal and Soft Tissue Imaging Procedures: 1 (<1%) n (%)
- TEAE: Myalgia: 2 (<1%) n (%)
- TEAE: Myasthenia Gravis: 1 (<1%) n (%)
- TEAE: Mycoplasma Infections: 1 (<1%) n (%)
- TEAE: Myeloradiculopathy: 1 (<1%) n (%)
- TEAE: Myocardial Infarction: 1 (<1%) n (%)
- TEAE: Myositis: 1 (<1%) n (%)
- TEAE: Nail Fungal Infection NOS: 2 (<1%) n (%)
- TEAE: Nail Infection NOS: 1 (<1%) n (%)
- TEAE: Nail and Nail Bed Conditions (Excl Infections and Infestations): 1 (<1%) n (%)
- TEAE: Nasal Congestion and Inflammations: 8 (1%) n (%)
- TEAE: Nasopharyngitis: 28 (5%) n (%)
- TEAE: Nausea: 25 (5%) n (%)
- TEAE: Nausea and Vomiting Symptoms: 33 (6%) n (%)
- TEAE: Neck Pain: 1 (<1%) n (%)
- TEAE: Neoplasms Benign Site Unspecified NEC: 2 (<1%) n (%)
- TEAE: Neoplasms Benign, Malignant and Unspecified (Incl Cysts and Polyps): 15 (3%) n (%)
- TEAE: Nervous System Disorders: 64 (12%) n (%)
- TEAE: Neurological Signs and Symptoms NEC: 6 (1%) n (%)
- TEAE: Neuromuscular Junction Dysfunction: 1 (<1%) n (%)
- TEAE: Neutrophil Count Decreased: 3 (<1%) n (%)
- TEAE: Night Cramps: 1 (<1%) n (%)
- TEAE: Nitrite Urine Present: 2 (<1%) n (%)
- TEAE: Non-Accidental Overdose: 1 (<1%) n (%)
- TEAE: Non-Site Specific Injuries NEC: 11 (2%) n (%)
- TEAE: Non-Site Specific Procedural Complications: 8 (1%) n (%)
- TEAE: Normal Pregnancy, Labour and Delivery*: 1 (<1%) n (%)
- TEAE: Ocular Disorders NEC: 1 (<1%) n (%)
- TEAE: Ocular Nerve and Muscle Disorders: 2 (<1%) n (%)
- TEAE: Oedema NEC: 7 (1%) n (%)
- TEAE: Oedema NOS: 1 (<1%) n (%)
- TEAE: Oedema Peripheral: 6 (1%) n (%)
- TEAE: Ophthalmic Function Diagnostic Procedures: 2 (<1%) n (%)
- TEAE: Oral Dryness and Saliva Altered: 2 (<1%) n (%)
- TEAE: Osteoarthritis Aggravated: 3 (<1%) n (%)
- TEAE: Osteoarthropathies: 4 (<1%) n (%)
- TEAE: Osteopenia: 1 (<1%) n (%)
- TEAE: Osteoporosis NOS: 3 (<1%) n (%)
- TEAE: Otitis Media NOS: 1 (<1%) n (%)
- TEAE: Ovarian Cancer NOS*: 1 (<1%) n (%)
- TEAE: Ovarian Cystadenofibroma*: 1 (<1%) n (%)
- TEAE: Ovarian Neoplasms Benign*: 1 (<1%) n (%)
- TEAE: Ovarian Neoplasms Malignant (Excl Germ Cell)*: 1 (<1%) n (%)
- TEAE: Overdoses: 1 (<1%) n (%)
- TEAE: Pain NOS: 3 (<1%) n (%)
- TEAE: Pain and Discomfort NEC: 12 (2%) n (%)
- TEAE: Pain in Limb: 6 (1%) n (%)
- TEAE: Palpitations: 4 (<1%) n (%)
- TEAE: Panic Attack: 1 (<1%) n (%)
- TEAE: Panic Symptoms: 1 (<1%) n (%)
- TEAE: Papulosquamous Conditions: 1 (<1%) n (%)
- TEAE: Paraesthesias and Dysaesthesias: 2 (<1%) n (%)
- TEAE: Paranasal Sinus Disorders (Excl Infections and Neoplasms): 9 (2%) n (%)
- TEAE: Paranasal Sinus Hypersecretion: 1 (<1%) n (%)
- TEAE: Parkinson's Disease NOS: 1 (<1%) n (%)
- TEAE: Parkinson's Disease and Parkinsonism: 1 (<1%) n (%)
- TEAE: Partial Vision Loss: 1 (<1%) n (%)
- TEAE: Pelvic Pain NOS: 2 (<1%) n (%)
- TEAE: Penile Disorders NEC (Excl Erection and Ejaculation)*: 1 (<1%) n (%)
- TEAE: Penile Haemorrhage*: 1 (<1%) n (%)
- TEAE: Perception Disturbances: 1 (<1%) n (%)
- TEAE: Periorbital Haematoma: 1 (<1%) n (%)
- TEAE: Peripheral Embolism NOS: 1 (<1%) n (%)
- TEAE: Peripheral Embolism and Thrombosis: 1 (<1%) n (%)
- TEAE: Peripheral Swelling: 1 (<1%) n (%)
- TEAE: Peripheral Vascular Disorders NEC: 2 (<1%) n (%)
- TEAE: Pharyngitis: 6 (1%) n (%)
- TEAE: Pharyngitis Streptococcal: 7 (1%) n (%)
- TEAE: Physical Examination Procedures: 9 (2%) n (%)
- TEAE: Plantar Fasciitis: 4 (<1%) n (%)
- TEAE: Pneumonia Mycoplasmal: 1 (<1%) n (%)
- TEAE: Pneumonia NOS: 2 (<1%) n (%)
- TEAE: Polydipsia: 1 (<1%) n (%)
- TEAE: Polyuria: 1 (<1%) n (%)
- TEAE: Popliteal Bursitis: 1 (<1%) n (%)
- TEAE: Post Procedural Discomfort: 2 (<1%) n (%)
- TEAE: Post Procedural Pain: 6 (1%) n (%)
- TEAE: Posterior Capsule Opacification: 1 (<1%) n (%)
- TEAE: Postnasal Drip: 1 (<1%) n (%)
- TEAE: Pregnancy NOS*: 1 (<1%) n (%)
- TEAE: Pregnancy, Puerperium and Perinatal Conditions: 1 (<1%) n (%)
- TEAE: Premenopause*: 1 (<1%) n (%)
- TEAE: Premenstrual Syndrome*: 1 (<1%) n (%)
- TEAE: Proctalgia: 4 (<1%) n (%)
- TEAE: Productive Cough: 1 (<1%) n (%)
- TEAE: Prostate and Seminal Vesicles Infections and Inflammations*: 3 (2%) n (%)
- TEAE: Prostatitis*: 3 (2%) n (%)
- TEAE: Protein Urine Present: 3 (<1%) n (%)
- TEAE: Proteinuria: 1 (<1%) n (%)
- TEAE: Pruritus Ani: 1 (<1%) n (%)
- TEAE: Pruritus NEC: 4 (<1%) n (%)
- TEAE: Pruritus NOS: 4 (<1%) n (%)
- TEAE: Psoriasis: 1 (<1%) n (%)
- TEAE: Psychiatric Disorders: 32 (6%) n (%)
- TEAE: Psychotic Disorder NEC: 1 (<1%) n (%)
- TEAE: Psychotic Disorder NOS: 1 (<1%) n (%)
- TEAE: Purine Metabolism Disorders NEC: 2 (<1%) n (%)
- TEAE: Pyrexia: 3 (<1%) n (%)
- TEAE: Rash Macular: 2 (<1%) n (%)
- TEAE: Rash NOS: 6 (1%) n (%)
- TEAE: Rashes, Eruptions and Exanthems NEC: 8 (1%) n (%)
- TEAE: Rate and Rhythm Disorders NEC: 4 (<1%) n (%)
- TEAE: Rectal Cramps: 1 (<1%) n (%)
- TEAE: Rectal Disorder NOS: 1 (<1%) n (%)
- TEAE: Rectal Haemorrhage: 8 (1%) n (%)
- TEAE: Rectal Tenesmus: 2 (<1%) n (%)
- TEAE: Red Blood Cell Analyses: 1 (<1%) n (%)
- TEAE: Red Blood Cells Urine: 1 (<1%) n (%)
- TEAE: Refractive Errors NOS: 1 (<1%) n (%)
- TEAE: Refractive and Accommodative Disorders: 1 (<1%) n (%)
- TEAE: Renal Bruit: 1 (<1%) n (%)
- TEAE: Renal Function Analyses: 4 (<1%) n (%)
- TEAE: Renal Lithiasis: 3 (<1%) n (%)
- TEAE: Renal and Urinary Disorders: 17 (3%) n (%)
- TEAE: Reproductive Organ and Breast Histopathology Procedures: 1 (<1%) n (%)
- TEAE: Reproductive System and Breast Disorders: 24 (4%) n (%)
- TEAE: Reproductive Tract Signs and Symptoms NEC: 3 (<1%) n (%)
- TEAE: Respiratory Tract Congestion: 2 (<1%) n (%)
- TEAE: Respiratory Tract Disorders NEC: 2 (<1%) n (%)
- TEAE: Respiratory Tract Infection NOS: 1 (<1%) n (%)
- TEAE: Respiratory, Thoracic and Mediastinal Disorders: 46 (9%) n (%)
- TEAE: Retinal Detachment: 1 (<1%) n (%)
- TEAE: Retinal Structural Change, Deposit and Degeneration: 1 (<1%) n (%)
- TEAE: Rheumatoid Arthritis: 1 (<1%) n (%)
- TEAE: Rheumatoid Arthritis Aggravated: 1 (<1%) n (%)
- TEAE: Rheumatoid Arthropathies: 2 (<1%) n (%)
- TEAE: Rhinitis Allergic NOS: 4 (<1%) n (%)
- TEAE: Rhinitis NOS: 3 (<1%) n (%)
- TEAE: Rhinitis Seasonal: 1 (<1%) n (%)
- TEAE: Rhinoviral Infections: 28 (5%) n (%)
- TEAE: Rib Fracture: 1 (<1%) n (%)
- TEAE: Road Traffic Accident: 1 (<1%) n (%)
- TEAE: Rosacea: 1 (<1%) n (%)
- TEAE: Rosaceas: 1 (<1%) n (%)
- TEAE: Rotator Cuff Syndrome: 1 (<1%) n (%)
- TEAE: Seasonal Allergy: 5 (<1%) n (%)
- TEAE: Seizures and Seizure Disorders NEC: 1 (<1%) n (%)
